Measured values reported in patent US20220323429A1, “PIMAVANSERIN FOR TREATING NEURODEGENERATIVE DISEASES” (ACADIA Pharmaceuticals Inc., priority 2019, published 2022).

What was measured:
[1] = In-use stability impurity analysis (HPLC) of pimavanserin 34 mg capsule contents in vehicles; format: physicochemical; settings: for Impurity D / Impurity Unknown RRT 0.90 / Impurity Unknown RRT 0.99 / Impurity Unknown RRT 1.10 / Total Imp.: ambient
Method: (§1) Analytical HPLC Stability Study experiments (Example 1) were performed on Agilent 1200 Series, or equivalent; Waters XBridge C18 column, 5 μm 150×4.6 mm; mobile phase: Solvent A: 50 mM ammonium bicarbonate, pH 8.0; Solvent B: acetonitrile/methanol, 80:20 (v/v); Flow rate: 1 mL/min; Inj. Volume 20 μL; Autosampler Temp. 5° C.; column temperature: 40° C., detection UV at 210 nm; sample concentration (as free base) assay: 0.068 mg/mL, impurity: 0.68 mg/mL; standard concentration (as free base) 0.068 mg/mL; PLOQ Std. 0.05% of 0.68 mg/mL; SST solution, 1% of 0.68 mg/mL (impurities A, C, D, E, F, and G); diluent for standards 80/20 (v/v) ethanol/water; diluent for samples, ethanol; run time 40 min; gradient method: 0 min mobile phase A (90%) and mobile phase B (10%) to 30 min mobile phase A (0%), and mobile phase B (100%); then 30.1 min to 40 min mobile phase A (90%), mobile phase B (10%).
Samples for the assessment of the degradation products stability from solutions or mixtures of pimavanserin in vehicles were prepared as follows. Four samples (n=4) were prepared for each vehicle as follows.
(§2) For each sample, one capsule was weighed, and the content of each capsule was dropped into a 50 mL volumetric flask and the empty capsule shell was weighed and discarded. The specified amount of each vehicle was added as specified in Table 3, below.
(§3) The flasks were gently swirled to ensure the capsule contents were visually incorporated with the vehicle. The flasks were kept on the bench at ambient temperature for each time point: 2, 4, and 24 hours. Time 0 samples were processed immediately. At the specified time point a stir bar and approximately 45 mL of diluent were added to the flask. The solution was stirred vigorously for 2 hours, and the flask was left on the bench overnight. The next day the flasks were sonicated for approximately 30 minutes. The stir bar was removed and rinsed carefully with diluent into the flask, and the flask was diluted to volume with diluent and mixed well by inversion. An aliquot of each solution was centrifuged for 5 minutes at 10000 rpm. The supernatant was transferred to a HPLC vial, and injected for analysis.

[2] = Assay from diluted impurity samples (mass balance), in-use stability; format: physicochemical; settings: for Assay (%) from diluted impurity sample: ambient; for Absolute Difference from Time 0 (%): diluted impurity sample
Method: as §1, §2, §3
Samples were prepared by transferring the stock volume using a volumetric pipet into a 20 mL volumetric flask, diluted to volume with diluent, and mixed well by inversion. An aliquot of each solution was centrifuged for 5 minutes at 10000 rpm. The supernatant was transferred to a HPLC vial and injected for analysis.

CC(C)COc1ccc(CNC(=O)N(Cc2ccc(F)cc2)C2CCN(C)CC2)cc1 [Pimavanserin, N-(4-Fluorophenylmethyl)-N-(1-methylpiperidin-4-yl)-N′-(4-(2-methylpropyloxy)phenylmethyl)carbamide]
Impurity D ([1]; Ensure 5 mL, T = 0): 0.22 % w/w
Impurity Unknown RRT 0.90 ([1]; Ensure 5 mL, T = 0): 0.08 % w/w
Impurity Unknown RRT 0.99 ([1]; Ensure 5 mL, T = 0): 0.09 % w/w
Impurity Unknown RRT 1.10 ([1]; Ensure 5 mL, T = 0): 0.06 % w/w
Total Imp. ([1]; Ensure 5 mL, T = 0): 0.45 % w/w
Impurity D ([1]; Ensure 5 mL, T = 2 h): 0.20 % w/w
Impurity Unknown RRT 0.90 ([1]; Ensure 5 mL, T = 2 h): 0.08 % w/w
Impurity Unknown RRT 0.99 ([1]; Ensure 5 mL, T = 2 h): 0.10 % w/w
Impurity Unknown RRT 1.10 ([1]; Ensure 5 mL, T = 2 h): 0.05 % w/w
Total Imp. ([1]; Ensure 5 mL, T = 2 h): 0.43 % w/w
Impurity D ([1]; Ensure 5 mL, T = 4 h): 0.23 % w/w
Impurity Unknown RRT 0.90 ([1]; Ensure 5 mL, T = 4 h): 0.08 % w/w
Impurity Unknown RRT 0.99 ([1]; Ensure 5 mL, T = 4 h): 0.09 % w/w
Impurity Unknown RRT 1.10 ([1]; Ensure 5 mL, T = 4 h): 0.06 % w/w
Total Imp. ([1]; Ensure 5 mL, T = 4 h): 0.46 % w/w
Impurity D ([1]; Ensure 5 mL, T = 24 h): 0.23 % w/w
Impurity Unknown RRT 0.90 ([1]; Ensure 5 mL, T = 24 h): 0.07 % w/w
Impurity Unknown RRT 0.99 ([1]; Ensure 5 mL, T = 24 h): 0.10 % w/w
Impurity Unknown RRT 1.10 ([1]; Ensure 5 mL, T = 24 h): 0.06 % w/w
Total Imp. ([1]; Ensure 5 mL, T = 24 h): 0.46 % w/w
change in impurity profile ([1]; any vehicle, over 24 hours at ambient room temperature): no significant change
Impurity D ([1]; applesauce 5 g, T = 0): 0.19 % w/w
Impurity Unknown RRT 0.99 ([1]; applesauce 5 g, T = 0): 0.09 % w/w
Total Imp. ([1]; applesauce 5 g, T = 0): 0.28 % w/w
Impurity D ([1]; applesauce 5 g, T = 2 h): 0.21 % w/w
Impurity Unknown RRT 0.99 ([1]; applesauce 5 g, T = 2 h): 0.10 % w/w
Total Imp. ([1]; applesauce 5 g, T = 2 h): 0.31 % w/w
Impurity D ([1]; applesauce 5 g, T = 4 h): 0.22 % w/w
Impurity Unknown RRT 0.99 ([1]; applesauce 5 g, T = 4 h): 0.10 % w/w
Total Imp. ([1]; applesauce 5 g, T = 4 h): 0.32 % w/w
Impurity D ([1]; applesauce 5 g, T = 24 h): 0.22 % w/w
Impurity Unknown RRT 0.99 ([1]; applesauce 5 g, T = 24 h): 0.09 % w/w
Total Imp. ([1]; applesauce 5 g, T = 24 h): 0.31 % w/w
individual and total impurities across timepoints ([1]; each vehicle, 0-24 h): consistent between all timepoints
Impurity D ([1]; orange juice 5 mL, T = 0): 0.17 % w/w
Impurity Unknown RRT 0.99 ([1]; orange juice 5 mL, T = 0): 0.09 % w/w
Total Imp. ([1]; orange juice 5 mL, T = 0): 0.26 % w/w
Impurity D ([1]; orange juice 5 mL, T = 2 h): 0.17 % w/w
Impurity Unknown RRT 0.99 ([1]; orange juice 5 mL, T = 2 h): 0.09 % w/w
Total Imp. ([1]; orange juice 5 mL, T = 2 h): 0.26 % w/w
Impurity D ([1]; orange juice 5 mL, T = 4 h): 0.17 % w/w
Impurity Unknown RRT 0.99 ([1]; orange juice 5 mL, T = 4 h): 0.09 % w/w
Total Imp. ([1]; orange juice 5 mL, T = 4 h): 0.26 % w/w
Impurity D ([1]; orange juice 5 mL, T = 24 h): 0.17 % w/w
Impurity Unknown RRT 0.99 ([1]; orange juice 5 mL, T = 24 h): 0.09 % w/w
Total Imp. ([1]; orange juice 5 mL, T = 24 h): 0.26 % w/w
additional unknown impurities ([1]; two impurities, samples extracted from vanilla Ensure, time 0): < 0.1%
Impurity D ([1]; water 5 mL, T = 0): 0.23 % w/w
Impurity Unknown RRT 0.99 ([1]; water 5 mL, T = 0): 0.10 % w/w
Total Imp. ([1]; water 5 mL, T = 0): 0.33 % w/w
Impurity D ([1]; water 5 mL, T = 2 h): 0.24 % w/w
Impurity Unknown RRT 0.99 ([1]; water 5 mL, T = 2 h): 0.10 % w/w
Total Imp. ([1]; water 5 mL, T = 2 h): 0.34 % w/w
Impurity D ([1]; water 5 mL, T = 4 h): 0.23 % w/w
Impurity Unknown RRT 0.99 ([1]; water 5 mL, T = 4 h): 0.10 % w/w
Total Imp. ([1]; water 5 mL, T = 4 h): 0.33 % w/w
Impurity D ([1]; water 5 mL, T = 24 h): 0.25 % w/w
Impurity Unknown RRT 0.99 ([1]; water 5 mL, T = 24 h): 0.10 % w/w
Total Imp. ([1]; water 5 mL, T = 24 h): 0.35 % w/w
Assay (%) from diluted impurity sample ([2]; Ensure 5 mL, T = 0): 97.1%
Assay (%) from diluted impurity sample ([2]; Ensure 5 mL, T = 2 h): 94.6%
Assay (%) from diluted impurity sample ([2]; Ensure 5 mL, T = 4 h): 97.9%
Assay (%) from diluted impurity sample ([2]; Ensure 5 mL, T = 24 h): 97.3%
Absolute Difference from Time 0 (%) ([2]; Ensure, T = 0): 2.9%
Absolute Difference from Time 0 (%) ([2]; Ensure, T = 2 h): 5.4%
Absolute Difference from Time 0 (%) ([2]; Ensure, T = 4 h): 2.1%
Absolute Difference from Time 0 (%) ([2]; Ensure, T = 24 h): 2.7%
Assay (%) from diluted impurity sample ([2]; applesauce 5 g, T = 0): 97.5%
Assay (%) from diluted impurity sample ([2]; applesauce 5 g, T = 2 h): 99.4%
Assay (%) from diluted impurity sample ([2]; applesauce 5 g, T = 4 h): 104.1%
Assay (%) from diluted impurity sample ([2]; applesauce 5 g, T = 24 h): 99.5%
Absolute Difference from Time 0 (%) ([2]; applesauce, T = 0): 4.4%
Absolute Difference from Time 0 (%) ([2]; applesauce, T = 2 h): 2.5%
Absolute Difference from Time 0 (%) ([2]; applesauce, T = 4 h): 2.2%
Absolute Difference from Time 0 (%) ([2]; applesauce, T = 24 h): 2.4%
assay results difference from time 0 ([2]; diluted impurity samples, all vehicles and times): ≤ 5%
Assay (%) from diluted impurity sample ([2]; orange juice 5 mL, T = 0): 97.7%
Assay (%) from diluted impurity sample ([2]; orange juice 5 mL, T = 2 h): 97.5%
Assay (%) from diluted impurity sample ([2]; orange juice 5 mL, T = 4 h): 96.4%
Assay (%) from diluted impurity sample ([2]; orange juice 5 mL, T = 24 h): 99.2%
Absolute Difference from Time 0 (%) ([2]; orange juice, T = 0): 2.6%
Absolute Difference from Time 0 (%) ([2]; orange juice, T = 2 h): 2.8%
Absolute Difference from Time 0 (%) ([2]; orange juice, T = 4 h): 3.9%
Absolute Difference from Time 0 (%) ([2]; orange juice, T = 24 h): 1.1%
Assay (%) from diluted impurity sample ([2]; water 5 mL, T = 0): 95.6%
Assay (%) from diluted impurity sample ([2]; water 5 mL, T = 2 h): 98.2%
Assay (%) from diluted impurity sample ([2]; water 5 mL, T = 4 h): 97.1%
Assay (%) from diluted impurity sample ([2]; water 5 mL, T = 24 h): 97.5%
Absolute Difference from Time 0 (%) ([2]; water, T = 0): 3.3%
Absolute Difference from Time 0 (%) ([2]; water, T = 2 h): 0.7%
Absolute Difference from Time 0 (%) ([2]; water, T = 4 h): 1.8%
Absolute Difference from Time 0 (%) ([2]; water, T = 24 h): 1.4%
